Experiments:
Assay type in all cases: functional
Digitaria [1] = test: Post-emergence herbicidal activity against one-leaf stage of Digitaria adscendens under greenhouse condition at 750 g /ha measured after 24 days by spray method; settings: in Digitaria adscendens, 576 h, read-out: GI
Echinochloa crus-galli [2] = test: Post-emergence herbicidal activity against one-leaf stage of Echinochloa crus-galli (barnyard grass) under greenhouse condition at 750 g /ha measured after 24 days by spray method; settings: 576 h, read-out: GI
Amaranthus retroflexus [3] = test: Post-emergence herbicidal activity against one-leaf stage of Amaranthus retroflexus under greenhouse condition at 750 g /ha measured after 24 days by spray method; settings: 576 h, read-out: GI
[4] = tested on: Brassica rapa subsp. oleifera; test: Post-emergence herbicidal activity against one-leaf stage Brassica rapa subsp. oleifera under greenhouse condition at 750 g /ha measured after 24 days by spray method; settings: 576 h, read-out: GI
Digitaria [5] = test: Pre-emergence herbicidal activity against Digitaria adscendens under greenhouse condition at 750 g /ha measured after 24 days by spray method; settings: in Digitaria adscendens, 576 h, read-out: GI
Echinochloa crus-galli [6] = test: Pre-emergence herbicidal activity against Echinochloa crus-galli (barnyard grass) under greenhouse condition at 750 g /ha measured after 24 days by spray method; settings: 576 h, read-out: GI
Amaranthus retroflexus [7] = test: Pre-emergence herbicidal activity against Amaranthus retroflexus under greenhouse condition at 750 g /ha measured after 24 days by spray method; settings: 576 h, read-out: GI
[8] = tested on: Brassica rapa subsp. oleifera; test: Pre-emergence herbicidal activity against Brassica rapa subsp. oleifera under greenhouse condition at 750 g /ha measured after 24 days by spray method; settings: 576 h, read-out: GI
Spirodela polyrhiza [9] = test: Bleaching herbicidal activity in Spirodela polyrhiza fronds cultured in compound-containing in medium assessed as chlorophyll inhibition at 1 ug/ml after 7 days; settings: 168 h
Spirodela polyrhiza [10] = test: Bleaching herbicidal activity in Spirodela polyrhiza fronds cultured in compound-containing in medium assessed as chlorophyll inhibition at 10 ug/ml after 7 days; settings: 168 h

SMILES	inhibition of growth at 750 g/ha (Digitaria [1]) [%]	inhibition of growth at 750 g/ha (Echinochloa crus-galli [2]) [%]	inhibition of growth at 750 g/ha (Amaranthus retroflexus [3]) [%]	inhibition of growth at 750 g/ha [4] [%]	inhibition of growth at 750 g/ha (Digitaria [5]) [%]	inhibition of growth at 750 g/ha (Echinochloa crus-galli [6]) [%]	inhibition of growth at 750 g/ha (Amaranthus retroflexus [7]) [%]	inhibition of growth at 750 g/ha [8] [%]	inhibition at 1 µg/mL (Spirodela polyrhiza [9]) [%]	inhibition at 10 µg/mL (Spirodela polyrhiza [10]) [%]
Cc1cccc(COc2nnc(C)cc2-c2cccc(C(F)(F)F)c2)c1	0	0	22	13	0	10	0	0	43	46
Cc1cc(-c2cccc(C(F)(F)F)c2)c(Oc2ccccc2F)nn1	16	5	73	69	11	6	23	4	63	66
Cc1cc(-c2cccc(C(F)(F)F)c2)c(Oc2ccc(C(C)(C)C)cc2)nn1	0	33	38	44	4	0	0	1	0	35
Cc1cc(-c2cccc(C(F)(F)F)c2)c(OCc2ccc(Br)cc2)nn1	0	15	23	20	0	4	0	0	14	27
Cc1cc(-c2cccc(C(F)(F)F)c2)c(Oc2ccccc2C)nn1	11	24	50	55	7	0	0	0	8	73
Cc1ccc(Oc2nnc(C)cc2-c2cccc(C(F)(F)F)c2)c(C)c1	19	18	64	45	0	15	0	0	0	41
Cc1cc(-c2cccc(C(F)(F)F)c2)c(OCc2ccc(Cl)cc2)nn1	0	0	45	72	6	21	9	17	53	66
Cc1cc(C)cc(COc2nnc(C)cc2-c2cccc(C(F)(F)F)c2)c1	24	11	10	36	0	1	2	0	0	71
COc1ccc(COc2nnc(C)cc2-c2cccc(C(F)(F)F)c2)cc1	20	0	16	13	48	39	0	0	0	72
Cc1cc(-c2cccc(C(F)(F)F)c2)c(Oc2cccc(Cl)c2)nn1	74	57	63	100	7	6	0	11	72	72
COc1ccccc1COc1nnc(C)cc1-c1cccc(C(F)(F)F)c1	10	1	25	16	33	0	0	0	18	72

Reference: ChEMBL document CHEMBL3045111, “Synthesis and herbicidal activities of novel 3-(substituted benzyloxy or phenoxy)-6-methyl-4-(3-trifluoromethylphenyl)pyridazine derivatives” (2012)
